Measured values from ChEMBL document CHEMBL1135903 (J Med Chem, 2002).

Key:
Carbonic anhydrase 4 = biological target: T1, Carbonic anhydrase 4 (Bos taurus, UniProt Q95323)
T1 sequence (Q95323 whole entry): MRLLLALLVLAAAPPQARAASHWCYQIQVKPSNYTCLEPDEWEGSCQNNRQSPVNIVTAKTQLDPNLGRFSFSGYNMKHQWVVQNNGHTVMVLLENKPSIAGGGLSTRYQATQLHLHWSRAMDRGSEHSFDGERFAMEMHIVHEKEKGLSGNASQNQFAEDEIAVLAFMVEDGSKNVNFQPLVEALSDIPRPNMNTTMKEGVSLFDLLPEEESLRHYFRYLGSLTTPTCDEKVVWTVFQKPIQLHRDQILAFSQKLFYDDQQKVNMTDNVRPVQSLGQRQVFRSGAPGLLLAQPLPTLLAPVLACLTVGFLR
Description: Inhibitory activity against bovine carbonic anhydrase IV

Carbonic anhydrase 1 = Carbonic anhydrase 1 (Homo sapiens, UniProt P00915)
Carbonic anhydrase 1, sequence (P00915 whole entry): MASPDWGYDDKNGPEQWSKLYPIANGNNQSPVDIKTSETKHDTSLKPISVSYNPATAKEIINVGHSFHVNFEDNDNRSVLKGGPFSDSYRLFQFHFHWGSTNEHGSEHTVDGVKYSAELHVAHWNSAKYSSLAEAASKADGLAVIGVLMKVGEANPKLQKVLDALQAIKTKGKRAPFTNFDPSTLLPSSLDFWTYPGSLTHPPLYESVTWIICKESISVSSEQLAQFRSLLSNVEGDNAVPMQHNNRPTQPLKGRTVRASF
Description: Inhibitory activity against Human carbonic anhydrase I

| Structure (SMILES) | Ki (Carbonic anhydrase 4) [nM] | Ki (Carbonic anhydrase 1) [nM] |
| --- | --- | --- |
| Cn1nc(S(N)(=O)=O)s/c1=N/C(=O)CN(CCN(CCN(CC(=O)O)CC(=O)/N=c1/sc(S(N)(=O)=O)nn1C)CC(=O)O)CC(=O)O [listing 1 of 2 here] | 9 | 54 |
| Cn1nc(S(N)(=O)=O)s/c1=N/C(=O)CNCC(=O)O | 120 | 710 |
| NS(=O)(=O)c1nc2ccc(OC(=O)CN(CCN(CC(=O)O)c3ccccc3O)c3ccccc3O)cc2s1 | 12 | 47 |
| NS(=O)(=O)c1ccc(NNC(=O)CN(CCN(CC(=O)O)CC(=O)NNc2ccc(S(N)(=O)=O)cc2)CC(=O)O)cc1 | 510 | 12500 |
| NS(=O)(=O)c1ccc(CCOC(=O)CN(CCN(CC(=O)O)CC(=O)OCCc2ccc(S(N)(=O)=O)cc2)CC(=O)O)cc1 | 165 | 450 |
| NS(=O)(=O)c1ccc(CCOC(=O)CN(CCN(CC(=O)O)c2ccccc2O)c2ccccc2O)cc1 | 300 | 760 |
| NS(=O)(=O)c1cccc(NC(=O)CNCCNCC(=O)O)c1 | 1010 | 13000 |
| NS(=O)(=O)c1nc2ccc(NC(=O)CN(CC(=O)O)CC(=O)O)cc2s1 | 13 | 62 |
| NS(=O)(=O)c1cccc(NC(=O)CN(CCOCCOCCN(CC(=O)O)CC(=O)O)CC(=O)O)c1 | 500 | 7450 |
| NS(=O)(=O)c1ccc(NC(=O)CN(CCN(CC(=O)O)CC(=O)Nc2ccc(S(N)(=O)=O)cc2I)CC(=O)O)c(I)c1 | 45 | 89 |
| NS(=O)(=O)c1ccc(CCOC(=O)CN(CCN(CC(=O)O)CC(=O)O)CC(=O)O)cc1 | 310 | 640 |
| NS(=O)(=O)c1cc(S(N)(=O)=O)c(NC(=O)CNCCNCC(=O)O)cc1Cl | 135 | 250 |
| NS(=O)(=O)c1cc(S(N)(=O)=O)c(NC(=O)CN(CCOCCOCCN(CC(=O)O)CC(=O)Nc2cc(Cl)c(S(N)(=O)=O)cc2S(N)(=O)=O)CC(=O)O)cc1Cl | 36 | 50 |
| NS(=O)(=O)c1nnc(NC(=O)CN(CCN(CC(=O)O)c2ccccc2O)c2ccccc2O)s1 | 105 | 245 |
| NS(=O)(=O)c1ccc(NC(=O)CN(CCN(CC(=O)O)CC(=O)Nc2ccc(S(N)(=O)=O)cc2Cl)CC(=O)O)c(Cl)c1 | 50 | 225 |
| NS(=O)(=O)c1nc2ccc(OCCOC(=O)CN(CCOCCOCCN(CC(=O)O)CC(=O)OCCOc3ccc4nc(S(N)(=O)=O)sc4c3)CC(=O)O)cc2s1 | 5 | 15 |
| NS(=O)(=O)c1nnc(NC(=O)CCNC(=O)CN(CCOCCOCCN(CC(=O)O)CC(=O)NCCC(=O)Nc2nnc(S(N)(=O)=O)s2)CC(=O)O)s1 | 6 | 76 |
| NS(=O)(=O)c1ccc(NC(=O)CN(CCN(CC(=O)O)c2ccccc2O)c2ccccc2O)c(F)c1 | 79 | 450 |
| NS(=O)(=O)c1cc(S(N)(=O)=O)c(NC(=O)CN(CCN(CC(=O)O)CC(=O)O)CC(=O)O)c(Cl)c1Cl | 96 | 130 |
| NS(=O)(=O)c1cccc(NC(=O)CN(CCN(CC(=O)O)c2ccccc2O)c2ccccc2O)c1 | 860 | 10000 |
| NS(=O)(=O)c1nc2ccc(OC(=O)CN(CCN(CC(=O)O)CC(=O)Oc3ccc4nc(S(N)(=O)=O)sc4c3)CC(=O)O)cc2s1 | 8 | 37 |
| Cn1nc(S(N)(=O)=O)s/c1=N/C(=O)CNCCNCC(=O)O | 76 | 275 |
| NS(=O)(=O)c1nc2ccc(OCCOC(=O)CN(CCN(CC(=O)O)CC(=O)O)CC(=O)O)cc2s1 | 8 | 39 |

| Structure (SMILES) | Ki (Carbonic anhydrase 4) [nM] | Ki (Carbonic anhydrase 1) [nM] |
| --- | --- | --- |
| NS(=O)(=O)c1nc2ccc(OC(=O)CNCC(=O)O)cc2s1 | 14 | 50 |
| NS(=O)(=O)c1ccc(CNC(=O)CNCCNCC(=O)O)cc1 | 245 | 1760 |
| NS(=O)(=O)c1ccc(NC(=O)CNCCNCC(=O)O)c(F)c1 | 103 | 780 |
| NS(=O)(=O)c1nnc(NC(=O)CCNC(=O)CN(CC(=O)O)CC(=O)O)s1 | 45 | 268 |
| NS(=O)(=O)c1ccc(NC(=O)CNCC(=O)O)c(Br)c1 | 57 | 610 |
| NS(=O)(=O)c1cc(S(N)(=O)=O)c(NC(=O)CN(CCOCCOCCN(CC(=O)O)CC(=O)O)CC(=O)O)cc1Cl | 65 | 93 |
| NS(=O)(=O)c1ccc(NC(=O)CN(CCN(CC(=O)O)c2ccccc2O)c2ccccc2O)c(Cl)c1 | 108 | 870 |
| NS(=O)(=O)c1ccc(CCNC(=O)CN(CCOCCOCCN(CC(=O)O)CC(=O)NCCc2ccc(S(N)(=O)=O)cc2)CC(=O)O)cc1 | 12 | 30 |
| NS(=O)(=O)c1ccc(CNC(=O)CN(CC(=O)O)CC(=O)O)cc1 | 256 | 3500 |
| NS(=O)(=O)c1nc2ccc(OC(=O)CN(CCN(CC(=O)O)CC(=O)O)CC(=O)O)cc2s1 | 10 | 43 |
| NS(=O)(=O)c1ccccc1NC(=O)CN(CCN(CC(=O)O)CC(=O)Nc1ccccc1S(N)(=O)=O)CC(=O)O | 650 | 8100 |
| NS(=O)(=O)c1nc2ccc(OCCOC(=O)CNCCNCC(=O)O)cc2s1 | 9 | 43 |
| NS(=O)(=O)c1ccc(NC(=O)CNCCNCC(=O)O)c(I)c1 | 115 | 430 |
| NS(=O)(=O)c1ccc(NC(=O)CN(CCOCCOCCN(CC(=O)O)CC(=O)Nc2ccc(S(N)(=O)=O)cc2)CC(=O)O)cc1 | 150 | 3800 |
| NS(=O)(=O)c1ccc(NC(=O)CNCC(=O)O)c(F)c1 | 145 | 1300 |
| NS(=O)(=O)c1ccc(COC(=O)CN(CCN(CC(=O)O)CC(=O)OCc2ccc(S(N)(=O)=O)cc2)CC(=O)O)cc1 | 200 | 460 |
| NS(=O)(=O)c1ccc(CNC(=O)CN(CCOCCOCCN(CC(=O)O)CC(=O)O)CC(=O)O)cc1 | 48 | 610 |
| NS(=O)(=O)c1ccc(NC(=O)CNCCNCC(=O)O)c(Cl)c1 | 155 | 900 |
| NS(=O)(=O)c1nnc(NC(=O)CN(CCOCCOCCN(CC(=O)O)CC(=O)Nc2nnc(S(N)(=O)=O)s2)CC(=O)O)s1 | 8 | 27 |
| NS(=O)(=O)c1nc2ccc(OC(=O)CN(CCOCCOCCN(CC(=O)O)CC(=O)O)CC(=O)O)cc2s1 | 5 | 33 |
| NS(=O)(=O)c1ccc(NC(=O)CN(CCN(CC(=O)O)CC(=O)O)CC(=O)O)cc1 | 330 | 6300 |
| NS(=O)(=O)c1ccc(NNC(=O)CN(CCN(CC(=O)O)CC(=O)O)CC(=O)O)cc1 | 750 | 16000 |
| NS(=O)(=O)c1nnc(NC(=O)CN(CCN(CC(=O)O)CC(=O)O)CC(=O)O)s1 | 37 | 225 |

| Structure (SMILES) | Ki (Carbonic anhydrase 4) [nM] | Ki (Carbonic anhydrase 1) [nM] |
| --- | --- | --- |
| NS(=O)(=O)c1cccc(NC(=O)CN(CCN(CC(=O)O)CC(=O)O)CC(=O)O)c1 | 750 | 10000 |
| NS(=O)(=O)c1ccc(NC(=O)CN(CCN(CC(=O)O)CC(=O)Nc2ccc(S(N)(=O)=O)cc2Br)CC(=O)O)c(Br)c1 | 34 | 105 |
| NS(=O)(=O)c1ccc(CCNC(=O)CNCC(=O)O)cc1 | 257 | 3450 |
| NS(=O)(=O)c1nc2ccc(NC(=O)CN(CCN(CC(=O)O)CC(=O)Nc3ccc4nc(S(N)(=O)=O)sc4c3)CC(=O)O)cc2s1 | 9 | 33 |
| NS(=O)(=O)c1ccc(NC(=O)CN(CCOCCOCCN(CC(=O)O)CC(=O)O)CC(=O)O)c(F)c1 | 31 | 210 |
| NS(=O)(=O)c1ccc(NC(=O)CN(CCN(CC(=O)O)c2ccccc2O)c2ccccc2O)cc1 | 320 | 11500 |
| NS(=O)(=O)c1ccc(NC(=O)CN(CCOCCOCCN(CC(=O)O)CC(=O)O)CC(=O)O)cc1 | 170 | 4000 |
| NS(=O)(=O)c1ccccc1NC(=O)CN(CCN(CC(=O)O)c1ccccc1O)c1ccccc1O | 800 | 12500 |
| NS(=O)(=O)c1nnc(NC(=O)CNCCNCC(=O)O)s1 | 130 | 250 |
| Cn1nc(S(N)(=O)=O)s/c1=N/C(=O)CN(CCN(CCN(CC(=O)O)CC(=O)/N=c1/sc(S(N)(=O)=O)nn1C)CC(=O)O)CC(=O)O [listing 2 of 2 here] | 5 | 43 |
| NS(=O)(=O)c1cc(S(N)(=O)=O)c(NC(=O)CN(CC(=O)O)CC(=O)O)cc1Cl | 148 | 300 |
| NS(=O)(=O)c1cc(S(N)(=O)=O)c(NC(=O)CN(CC(=O)O)CC(=O)O)c(Cl)c1Cl | 100 | 345 |
| NS(=O)(=O)c1ccc(NNC(=O)CN(CC(=O)O)CC(=O)O)cc1 | 930 | 30500 |
| NS(=O)(=O)c1nc2ccc(OC(=O)CN(CC(=O)O)CC(=O)O)cc2s1 | 13 | 48 |
| NS(=O)(=O)c1ccccc1NC(=O)CN(CC(=O)O)CC(=O)O | 1200 | 25800 |
| NS(=O)(=O)c1ccc(CCOC(=O)CN(CC(=O)O)CC(=O)O)cc1 | 320 | 1100 |
| NS(=O)(=O)c1cccc(NC(=O)CN(CCOCCOCCN(CC(=O)O)CC(=O)Nc2cccc(S(N)(=O)=O)c2)CC(=O)O)c1 | 400 | 6150 |
| NS(=O)(=O)c1nnc(NC(=O)CN(CC(=O)O)CC(=O)O)s1 | 240 | 410 |
| Cn1nc(S(N)(=O)=O)s/c1=N/C(=O)CN(CCOCCOCCN(CC(=O)O)CC(=O)/N=c1/sc(S(N)(=O)=O)nn1C)CC(=O)O | 5 | 36 |
| NS(=O)(=O)c1ccc(CCOC(=O)CNCC(=O)O)cc1 | 340 | 1200 |
| NS(=O)(=O)c1ccccc1NC(=O)CN(CCOCCOCCN(CC(=O)O)CC(=O)Nc1ccccc1S(N)(=O)=O)CC(=O)O | 320 | 5600 |
| NS(=O)(=O)c1nnc(NC(=O)CCNC(=O)CN(CCN(CC(=O)O)CC(=O)O)CC(=O)O)s1 | 23 | 200 |
| NS(=O)(=O)c1ccc(COC(=O)CN(CCOCCOCCN(CC(=O)O)CC(=O)O)CC(=O)O)cc1 | 250 | 500 |
